Experiment in all cases: NCI tumour cell line growth inhibition, 48 h
Assay [1] relates to LXFL 529.
Assay [2] deals with BT-549.
Assay [3] has as its system PC-3.
For assay [4], the system named is MDA-MB-231.
Assay [5] deals with MDA-N.
In assay [6] the test system is T47D.
The test system of assay [7] is DU-145.
Assay [8] relates to MDA-MB-435.

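Growth conditions: 96-well plates. Treatment: test compound, 48 hours, 5 concentrations. Analysis: linear interpolation between bracketing concentrations; unreached endpoints set to highest concentration. At the GI50, growth is halved.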 Active and inactive are the calls of the source. Rule as the data show it: active = GI50 up to about 1.1 µM and inactive = higher.

We go through four compounds from ChEMBL document CHEMBL1201862, “PubChem BioAssay data set” (2004).

On to `COc1ccc(C2C(=O)C(Cl)N2Nc2nc(C)cc(O)n2)cc1OC` (stereo unspecified), for which, in assay [1], the GI50 was 41.3 µM (inactive).

In the case of `CCOC(=O)c1c(NC(=S)NCc2ccccc2)sc2c1CCN(C)C2`, the GI50 in assay [2] is 59 µM (inactive); in assay [3], 35.4 µM (inactive); in assay [4], 47.8 µM (inactive); in assay [5] it was > 100 µM (inactive); in assay [6], 41.5 µM (inactive); in assay [7] it was 64.1 µM (inactive).

Consider `CCCOC(=O)CNC(=O)OC(C)(C)C`, for which the GI50 in assay [1] was > 100 µM (inactive).

For the compound `O=C1OC(c2ccccc2)=N/C1=C\c1cccnc1`, the GI50 in assay [2] is 59.8 µM (inactive); in assay [3], > 100 µM (inactive); in assay [8], > 100 µM (inactive).
